The values that follow come from patent US20030216293A1, “Use of composition comprising at least one substance within the group GnRH-analogues for treatment of obsessive -compulsive disorder (OCD)” (priority 1998, published 2003).

Test [1] has as its system patient with a severe form of OCD. The test can be described thus: Case study: treatment of a patient with a severe form of OCD. The class given is in vivo, human. The procedure: The GnRH-analogue triptorelin is available in a pharmaceutical preparation (Decapeptyl® Depot). In the use of this preparation, an injection is administered containing triptorelin embonate in a dose corresponding to 3.75 mg triptorelin. Injections with this dose are given intramuscularly. They should be repeated every fourth week from the first injection.
A detailed case study of the treatment of a patient with a severe form of OCD is disclosed in the following, as supporting evidence of the effect of the method.
A then person was referred to a psychiatric specialist clinic from another qualified psychiatrist for evaluation and treatment of a severe condition of OCD.
The situation when the patient came to the clinic was that they had sickness pension since more than ten years. They lived alone in a small apartment which they hardly ever left. Obsessions and compulsive rituals occupied most of their time. They repeated against their will meaningless strings of words silently during several hours every day. They felt they had to read the newspaper according to certain ritual patterns; if they did anything wrong, they had to start again from the beginning. Sometimes, it took them the whole day to read the newspaper. […] Among other things, they placed their books so that the covers were strictly oriented along north-south lines. Their contacts with other persons were highly restraint and mainly limited to some relatives.
The clinical diagnosis was that they suffered from a very serious form of OCD. They were also found to be intelligent without any signs of any other mental illness or personality disorder. Thus, it was a clearly defined case of OCD.
During long periods of time the patient had been treated with the drugs which presently are considered to have the best effect against OCD. In the treatment of the patient they had also been given supportive psychotherapy.
In order to overcome this, treatment with the long-acting GnRH-analogue triptorelin (Decapeptyl® Depot) was given every fourth week as deep intramuscular depot injections with a dose corresponding to 3.75 mg triptorelin in each injection.

For test [2], the system named is symptoms of androgenic hyperactivity. The test can be described thus: Case study: treatment against the patient's symptoms of androgenic hyperactivity. The class given is in vivo, human. Particulars: one patient (male pattern baldness, sebaceous skin, acne, sexual drive). On the procedure: An endocrinological investigation was performed, based upon their symptoms of androgenic hyperactivity.

Where [3] appears, read: one patient, 3.75 mg i.m. depot every fourth week, after two plus another two months.

Take `CC(=O)O[C@]1(C(C)=O)CC[C@H]2[C@@H]3C=C(Cl)C4=CC(=O)[C@@H]5C[C@@H]5[C@]4(C)[C@H]3CC[C@@]21C` [cyproterone acetate]: in test [1] (one patient, given as anti-androgenic treatment), the “effect on OCD” value is listed as “without any obvious effect”. Further, the “improvement of OCD on previous treatment” value in test [1] (same patient, treated before triptorelin) is “without any major improvement”. The “effect on symptoms of androgenic hyperactivity” value in test [2] is on record as “without any significant effects”.

As for `CC(C)C[C@H](NC(=O)[C@@H](Cc1c[nH]c2ccccc12)NC(=O)[C@H](Cc1ccc(O)cc1)NC(=O)[C@H](CO)NC(=O)[C@H](Cc1c[nH]c2ccccc12)NC(=O)[C@H](Cc1c[nH]cn1)NC(=O)[C@@H]1CCC(=O)N1)C(=O)N[C@@H](CCCNC(=N)N)C(=O)N1CCC[C@H]1C(=O)NCC(N)=O` [triptorelin], the “OCD-symptoms, initial phase of treatment” value in test [1] (one patient, 3.75 mg deep intramuscular depot injection every fourth week, initially) is on record as “accentuation of the patients OCD-symptoms”. Also, the “patient's condition after two months treatment” value in test [1] (one patient, 3.75 mg i.m. depot every fourth week, after two months) was “began to feel better”. Besides, in test [1] (setting [3]), the “obsessive thoughts after another two months” value was “all obsessive thoughts had disappeared” and the “patient's condition after another two months” value was “dramatically better”. Also, the “clinical outcome of very severe OCD” value in test [1] (one patient, after three months of treatment) was “substantially recovered”.
